Measured values taken from US20250134907A1, “FUSED DIAZEPINES AS AGONISTS OF THE INSULIN-LIKE 3 (INSL3) PEPTIDE RECEPTOR RXFP2 AND METHODS OF USE THEREOF” (The United States of America,as represented by the …, priority 2022, published 2025).
pEC50: −log10 of the molar value.

Key:
RXFP2 = target: T1, RXFP2 (Homo sapiens, UniProt Q8WXD0); assay: Luciferase cAMP assay in HEK-CRE-Luc-RXFP2 cells; format: cell-based; conditions: for pEC50: 3 h treatment; for Emax (% Eff vs. 10 nM INSL3): relative to 10 nM INSL3 response
T1 construct: expressed in transfected cells
Procedure: A confirmatory cAMP assay was done to eliminate false positives using a HEK293T-CRE-Luc cell line stably transfected with RXFP2 (HEK-CRE-Luc-RXFP2), as this cell line expresses luciferase under the control of the cAMP response element (CRE). Activation of the RXFP2 receptor increases intracellular cAMP levels, inducing luciferase transcription in the nucleus. Thus, luciferase activity in these cells is proportional to cAMP accumulation. For this assay, cells were seeded in 96-well flat-bottom opaque plates at 20,000 cells/well in 60 μL/well of serum-free DMEM medium and allowed to attach overnight at 37° C., 5% CO2. The next morning, cells were treated with 1 μL/well of compound (25 μM-0.21 nM), 1 μM forskolin, or DMSO vehicle. Cells were also treated with 4 μL of INSL3 (100-0.01 nM) (Phoenix Pharmaceuticals, Burlingame, CA) or vehicle serum-free DMEM. Cells were incubated with the treatments for 3 hours at 37° C., 5% CO2, then rested 30 minutes at room temperature for equilibration, after which 65 μL/well of substrate AMPLITE™ Luciferase Reporter Gene Assay Kit (AAT Bioquest, Sunnyvale, CA) was added. Plates were incubated for 40 minutes at room temperature protected from light, and then luciferase output was read on a CLARIOstar plate reader (BMG Labtech, Germany). […]

mouse RXFP2 = target: T2, mouse RXFP2 (Mus musculus, UniProt Q91ZZ5); assay: Luciferase cAMP assay in HEK-CRE-Luc cells transiently transfected with mouse RXFP2; format: cell-based; conditions: 10 μM-[…], compared with human RXFP2 response
T2 construct: expressed in transfected cells; host or cells: HEK-CRE-Luc (transient, Lipofectamine2000)
Procedure: It was of interest if the RXFP2 agonists of formula (I) activate the mouse RXFP2 receptor. HEK-CRE-Luc cells transiently transfected with mouse RXFP2 were used to test agonist activity by measuring induction of cAMP. For this assay, cells were seeded in 6-well flat-bottom clear plates at 0.6 million cells/well in 2 mL/well of growth medium (DMEM, 10% FBS, 1× Pen/Strep) and allowed to attach overnight at 37° C., 5% CO2. The next morning, cells were transfected with 2 μg of plasmid (human or mouse RXFP2) and 6 μL of Lipofectamine2000 (Invitrogen, Waltham, MA) in a total volume of 200 μl/well OPTI-MEM™ I (Thermo Fisher, Waltham, MA) reduced serum medium and incubated an additional 24 hours. The transfected cells were then harvested and seeded in 96-well flat-bottom opaque plates at 30,000 cells/well in 60 μL/well of serum-free DMEM medium and incubated overnight to attach. The next morning, cells were treated with 1 μL/well of compound (10 μM-1.2 nM), 2 μM forskolin, or DMSO vehicle, and with 4 μL of positive control INSL3 (100-0.01 nM) (Phoenix Pharmaceuticals, Burlingame, CA) or vehicle serum-free DMEM. […] Plates were incubated for 40 minutes at room temperature protected from light, and the signal was read on a CLARIOstar plate reader (BMG Labtech, Germany). […]

[1] = tested on: primary human calvarial osteoblasts (HCO); assay: CellTiter-Glo cytotoxicity assay in HCO cells; format: cell-based; conditions: 24 h
Procedure: Cytotoxicity induced by the compounds in HEK293T cells and primary human calvarial osteoblasts (HCO) (ScienCell Research Laboratories, San Diego, CA) were tested using the […]-GLO™ Luminescent Cell Viability Assay (Promega, Madison, WI). This is a luminescence-based assay that determines viable cells by measuring cellular adenosine triphosphate (ATP) production. The luciferase enzyme requires ATP to catalyze the conversion of beetle luciferin to oxyluciferin and light. Thus, luciferase activity is proportional to ATP accumulation in the cells. For this assay, 96-well flat-bottom opaque plates seeded with HEK293T cells at 5,000 cells/well and HCO cells at 3,000 cells/well in 100 μL/well of growth medium (DMEM, 10% FBS, 1× Penicillin/Streptomycin). After incubating overnight at 37° C., 5% CO2 to allow attachment, cells were treated with 1 μL/well of compound (25-0.1 μM) or DMSO vehicle and incubated an additional 24 hours. Then cells were equilibrated for 30 minutes at room temperature and 100 μL/well of […]-GLO™ Reagent was added. Plates were placed on an orbital shaker for 2 minutes and incubated at room temperature for 10 minutes to stabilize the luminescent signal, which was read immediately after on a CLARIOstar plate reader (BMG Labtech, Germany). […] The HEK293T results represent the means±SEM of 3 technical replicates. The HCO results represent the means±SEM of 3 independent experiments.

[2] = tested on: gubernaculum of female embryos; assay: Gubernaculum development in female embryos of treated pregnant mice; format: in vivo, C57BL/6J mice; conditions: 30 mg/kg intraperitoneal to pregnant females, embryonic day 12.5 to 17.5
Text: The role of INSL3 and RXFP2 in gubernaculum development for the initial transabdominal descent of the testis during embryogenesis has been widely characterized in Insl3^-/- and Rxfp2^-/- mouse models of cryptorchidism. […] The gubernaculum is composed of the gubernacular bulb and cord, and it has begun invagination into the abdominal wall in preparation for the inguinoscrotal stage of testicular descent, which will finalize after birth. […] The hypothesis for our experiment is that by injecting pregnant females with the RXFP2 agonists during this embryonic development window, gubemaculum development could be induced in female embryos, which has been previously shown in female embryos overexpressing INSL3. […] For this assay, whole embryos were fixed in 10% formaldehyde for 24 hours. Afterwards, embryos were washed twice with PBS for 1 hour, followed by 3 consecutive washes with increasing concentrations of ethanol (30%, 50% and 70%) for 30 minutes. Fixed embryos were prepared for histology using an automatic tissue processor (Leica TP1020, Leica Biosystems, Germany), embedded in paraffin wax, and 5-7 μm sagittal serial sections were cut using an automated rotary microtome (Leica RM2255, Leica Biosystems, Germany). […] At least 4 embryos were analyzed per treatment group.

[3] = lower concentrations than 25 μM

T1 sequence (Q8WXD0 whole entry): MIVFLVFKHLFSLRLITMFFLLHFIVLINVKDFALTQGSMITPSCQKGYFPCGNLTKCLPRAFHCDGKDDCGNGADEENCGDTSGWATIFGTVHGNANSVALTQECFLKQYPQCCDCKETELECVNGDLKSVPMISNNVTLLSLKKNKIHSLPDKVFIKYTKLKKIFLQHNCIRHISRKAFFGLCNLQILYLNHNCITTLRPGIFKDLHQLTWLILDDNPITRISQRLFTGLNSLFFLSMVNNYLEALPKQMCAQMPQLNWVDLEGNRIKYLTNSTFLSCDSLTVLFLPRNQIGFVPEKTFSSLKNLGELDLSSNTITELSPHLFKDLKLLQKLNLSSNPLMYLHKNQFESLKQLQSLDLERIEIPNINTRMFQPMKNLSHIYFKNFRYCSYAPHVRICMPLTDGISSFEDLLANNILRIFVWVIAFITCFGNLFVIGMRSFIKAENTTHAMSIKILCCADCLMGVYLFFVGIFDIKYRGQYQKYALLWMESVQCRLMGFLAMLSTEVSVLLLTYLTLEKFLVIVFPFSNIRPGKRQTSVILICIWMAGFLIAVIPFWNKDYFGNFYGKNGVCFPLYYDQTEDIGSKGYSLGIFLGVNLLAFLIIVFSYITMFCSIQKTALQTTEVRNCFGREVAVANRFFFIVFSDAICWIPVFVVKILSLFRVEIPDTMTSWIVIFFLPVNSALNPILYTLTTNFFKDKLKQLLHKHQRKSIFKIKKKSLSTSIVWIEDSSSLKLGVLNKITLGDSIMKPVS
T2 sequence (Q91ZZ5 whole entry): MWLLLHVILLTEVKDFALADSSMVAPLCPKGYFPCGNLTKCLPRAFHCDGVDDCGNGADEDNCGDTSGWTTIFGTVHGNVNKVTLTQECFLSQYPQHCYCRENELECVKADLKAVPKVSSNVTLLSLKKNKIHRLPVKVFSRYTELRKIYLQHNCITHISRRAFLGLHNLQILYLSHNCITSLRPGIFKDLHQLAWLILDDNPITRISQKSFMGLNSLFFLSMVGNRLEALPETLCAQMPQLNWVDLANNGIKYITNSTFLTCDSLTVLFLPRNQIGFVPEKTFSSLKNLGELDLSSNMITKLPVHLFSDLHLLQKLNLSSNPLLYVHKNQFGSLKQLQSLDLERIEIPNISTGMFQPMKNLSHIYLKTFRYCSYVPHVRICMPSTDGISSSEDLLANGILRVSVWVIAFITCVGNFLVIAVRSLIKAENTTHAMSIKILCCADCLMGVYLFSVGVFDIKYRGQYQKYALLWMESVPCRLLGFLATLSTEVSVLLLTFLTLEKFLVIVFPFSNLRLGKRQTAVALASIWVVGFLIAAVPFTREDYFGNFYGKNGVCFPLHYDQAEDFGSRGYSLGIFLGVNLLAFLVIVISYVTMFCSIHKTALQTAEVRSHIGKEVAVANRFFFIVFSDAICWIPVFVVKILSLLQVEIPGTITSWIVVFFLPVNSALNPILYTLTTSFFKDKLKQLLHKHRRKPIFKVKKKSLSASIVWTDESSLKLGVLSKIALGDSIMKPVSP

Row | pEC50 (RXFP2; 25 μM-[…]) | Emax (% Eff vs. 10 nM INSL3) (RXFP2) | pEC50 (RXFP2; 25 μM-0.21 nM) | RXFP2 agonist activity (RXFP2; luciferase cAMP assay) | Compound | mouse RXFP2 activation (cAMP, luciferase) (mouse RXFP2) | cytotoxicity ([1]; 25 μM) | cytotoxicity [1, 3] | gubernaculum morphology in embryonic day 18.5 female embryos [2]
1 | 7.23 | 117.1% | – | – | O=C1Nc2ccc(-c3cccc(C(F)(F)F)c3)cc2C(=O)N2CCN(C(=O)COc3ccc(OC(F)(F)F)cc3Br)C[C@@H]12 [Example 123, (S)-2-(2-(2-bromo-4-(trifluoromethoxy)phenoxy)acetyl)-8-(3-(trifluoromethyl)phenyl)-1,3,4,12a-tetrahydrobenzo[e]pyrazino[1,2-a][1,4]diazepine-6,12 (2H, 11H)-dione] | activate the mouse RXFP2 receptor at levels comparable to human RXFP2 activation | – | – | –
2 | – | 105.5% | 7.59 | potent RXFP2 agonists | O=C1Nc2ccc(-c3cc(C(F)(F)F)cc(C(F)(F)F)c3)cc2C(=O)N2CCN(C(=O)COc3ccc(OC(F)(F)F)cc3Br)C[C@@H]12 [Example 158, (S)-8-(3,5-Bis(trifluoromethyl)phenyl)-2-(2-(2-bromo-4-(trifluoromethoxy)phenoxy)acetyl)-1,3,4,12a-tetrahydrobenzo[e]pyrazino[1,2-a][1,4]diazepine-6,12 (2H, 11H)-dione] | activate the mouse RXFP2 receptor at levels comparable to human RXFP2 activation | minimal toxicity | not toxic | male-like invagination of the gubemaculum
3 | – | – | – | – | O=C1Nc2ccc(-c3cc(C(F)(F)F)cc(C(F)(F)F)c3)cc2C(=O)N2CCN(C(=O)COc3ccc(OC(F)(F)F)cc3I)C[C@@H]12 [Example 187, (S)-8-(3,5-bis(trifluoromethyl)phenyl)-2-(2-(2-iodo-4-(trifluoromethoxy)phenoxy)acetyl)-1,3,4,12a-tetrahydrobenzo[e]pyrazino[1,2-a][1,4]diazepine-6,12 (2H, 11H)-dione] | – | minimal toxicity | not toxic | male-like invagination of the gubemaculum
